# Like-named read-outs stand apart in the source and are kept apart here.
# How the values were obtained:
# [1] = biological target: COVID-19 (nCoV-2019, SARS-CoV2) Mpro (Severe acute respiratory syndrome coronavirus 2, UniProt P0DTD1); test: COVID-19 (nCoV-2019, SARS-CoV2) Mpro enzymatic assay; format: biochemical; conditions: 25 nM Mpro, 25 μM substrate; read-out: COVID-19 Mpro IC50
# HCov OC43 = test: HCoV OC43 cytopathic effect (CPE) assay, CellTiter Glo; format: cell-based, human coronavirus (HCov) OC43
# 229E Mpro = 229E Mpro (Human coronavirus 229E, UniProt P0C6X1); test: 229E Mpro enzymatic assay (standard methods, SARS-CoV2 Mpro assay given as exemplary); format: biochemical, human coronavirus (HCov) 229E
# Method in brief: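 Run by standard methods, with the SARS-CoV-2 Mpro protocol given as the model: E. coli-expressed C-His6 protease at 25 nM and substrate at 25 μM (Km 13.5 μM). Buffer pH 7.3 with 5 mM TCEP and 0.1% BSA; % inhibition versus controls fitted to variable-slope log(inhibitor)-response for IC50.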
# [2] = Betacoronavirus 1, OC43, read-out: OC43 IC50 (uM) MEDIAN, median
# [3] = read-out: OC43 IC50 (uM) MEDIAN, median
# Chain of 229E Mpro (P0C6X1 2966-3267): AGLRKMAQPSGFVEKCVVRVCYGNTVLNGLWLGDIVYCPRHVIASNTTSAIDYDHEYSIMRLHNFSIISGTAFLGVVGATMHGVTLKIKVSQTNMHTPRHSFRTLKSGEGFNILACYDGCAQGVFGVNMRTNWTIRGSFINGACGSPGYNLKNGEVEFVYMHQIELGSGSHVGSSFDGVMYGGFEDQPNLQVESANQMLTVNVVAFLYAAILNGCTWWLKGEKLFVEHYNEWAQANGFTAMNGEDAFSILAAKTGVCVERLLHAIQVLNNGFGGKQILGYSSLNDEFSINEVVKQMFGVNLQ
SMILES,IC50 [1],EC50 (229E Mpro; 229E Mpro EC50),IC50 (HCov OC43; [2]),IC50 (HCov OC43; [3]),further results
"CN1CC(C(=O)N(c2ccc(S(F)(F)(F)(F)F)cc2)C(C(=O)NC2CCC(F)(F)CC2)c2cncc(F)c2)N(C#N)CC1=O (single isomer, unassigned) [Compound 1161 Isomer 3, 1-cyano-N-[2-[(4,4-difluorocyclohexyl)amino]-1-(5-fluoro-3-pyridyl)-2-oxo-ethyl]-4-methyl-5-oxo-N-[4-(pentafluoro-λ6-sulfanyl)phenyl]piperazine-2-carboxamide]",2000 to 10000 nM,2000 to 10000 nM,–,–,"IC50 (HCov OC43; read-out: OC43 IC50 (uM) MEDIAN, median, listed as 1161 Isomer 3): 10 to 30 µM"
"N#CN1CC(=O)NCC1C(=O)N(c1ccc(S(F)(F)(F)(F)F)cc1)C(C(=O)NC1CCC(F)(F)CC1)c1cncc(F)c1 (single isomer, unassigned) [Compound 1160 Isomer 3, 1-cyano-N-[2-[(4,4-difluorocyclohexyl)amino]-1-(5-fluoro-3-pyridyl)-2-oxo-ethyl]-5-oxo-N-[4-(pentafluoro-λ6-sulfanyl)phenyl]piperazine-2-carboxamide]",2000 to 10000 nM,< 2000 nM,–,–,"IC50 (HCov OC43; read-out: OC43 IC50 (uM) MEDIAN, median, listed as 1160 Isomer 3): 2 to 10 µM"
"CC(C)(C)c1ccc(N(C(=O)[C@H]2C[C@@H](O)CN2C#N)C(C(=O)NC2CCCCC2)c2cncc(Cl)c2)cc1 (single isomer, unassigned) [675 Isomer 1]",< 2000 nM,< 2000 nM,< 2 µM,–,–
"CC1(C)CCN(C#N)[C@H]1C(=O)N(c1ccc(S(F)(F)(F)(F)F)cc1)C(C(=O)NC1CCC(F)(F)CC1)c1cncc(F)c1 (single isomer, unassigned) [1094 Isomer 2]",10000 to 30000 nM,2000 to 10000 nM,–,10 to 30 µM,–
CC(C)(C)c1ccc(N(C(=O)C2NCC[C@H]2F)C(C(=O)NC2CCCCC2)c2cccnc2)cc1 (stereo partly drawn) [Compound 853],2000 to 10000 nM,2000 to 10000 nM,2 to 10 µM,–,–
"CN1CC(C(=O)N(c2ccc(S(F)(F)(F)(F)F)cc2)C(C(=O)NC2CCC(F)(F)CC2)c2cncc(F)c2)N(C#N)CC1=O (single isomer, unassigned) [Compound 1161 Isomer 4, 1-cyano-N-[2-[(4,4-difluorocyclohexyl)amino]-1-(5-fluoro-3-pyridyl)-2-oxo-ethyl]-4-methyl-5-oxo-N-[4-(pentafluoro-λ6-sulfanyl)phenyl]piperazine-2-carboxamide]",2000 to 10000 nM,2000 to 10000 nM,–,–,"IC50 (HCov OC43; read-out: OC43 IC50 (uM) MEDIAN, median, listed as 1161 Isomer 4): 2 to 10 µM"
"N#CC1(C(=O)N(c2ccc(S(F)(F)(F)(F)F)cc2)C(C(=O)NC2CCC(F)(F)CC2)c2cncc(F)c2)CC1 (stereo not drawn) [Compound 1289, 1-cyano-N-[2-[(4,4-difluorocyclohexyl)amino]-1-(5-fluoro-3-pyridyl)-2-oxo-ethyl]-N-[4-(pentafluoro-λ^6-sulfanyl)phenyl]cyclopropanecarboxamide]",> 30000 nM,> 30000 nM,> 30 µM,–,–
"CN1CC(C(=O)N(c2ccc(S(F)(F)(F)(F)F)cc2)C(C(=O)NC2CCC(F)(F)CC2)c2cncc(F)c2)N(C#N)CC1=O (stereo not drawn) [Compound 1161, 1-cyano-N-[2-[(4,4-difluorocyclohexyl)amino]-1-(5-fluoro-3-pyridyl)-2-oxo-ethyl]-4-methyl-5-oxo-N-[4-(pentafluoro-λ^6-sulfanyl)phenyl]piperazine-2-carboxamide]",< 2000 nM,< 2000 nM,< 2 µM,–,–
"CO[C@@H]1C[C@H](C(=O)N(c2ccc(S(F)(F)(F)(F)F)cc2)C(C(=O)NC2CCC(F)(F)CC2)c2cnccc2C(F)(F)F)N(C#N)C1 (single isomer, unassigned) [1202 Isomer 2]",< 2000 nM,–,–,< 2 µM,EC50 (229E Mpro; read-out: 229E Mpro EC50): < 2000 nM
"C[C@H](NC(=O)C(c1cnccn1)N(C(=O)c1ccco1)c1ccc(-c2ccccc2)cc1)c1ccccc1 (single isomer, unassigned) [1355 Isomer 1]",< 2000 nM,2000 to 10000 nM,> 30 µM,–,–
"COC1CN(C#N)C(C)(C(=O)N(c2ccc(S(F)(F)(F)(F)F)cc2)C(C(=O)NC2CCC(F)(F)CC2)c2cncc(F)c2)C1 (stereo not drawn) [Compound 1135b, 1-cyano-N-[2-[(4,4-difluorocyclohexyl)amino]-1-(5-fluoro-3-pyridyl)-2-oxo-ethyl]-4-methoxy-2-methyl-N-[4-(pentafluoro-λ^6-sulfanyl)phenyl]pyrrolidine-2-carboxamide]",> 30000 nM,> 30000 nM,> 30 µM,–,–
"N#CN1C[C@H](O)C[C@@H]1C(=O)N(c1ccc(S(F)(F)(F)(F)F)cc1)C(C(=O)NC1CCCCC1)c1cccnc1 (single isomer, unassigned) [Compound 791 Isomer 1]",< 2000 nM,< 2000 nM,< 2 µM,–,–
"N#CN1C[C@@H](OC(F)F)C[C@@H]1C(=O)N(c1ccc(S(F)(F)(F)(F)F)cc1)C(C(=O)NC1CCC(F)(F)CC1)c1cncc(F)c1 (single isomer, unassigned) [Compound 823a Isomer 2]",< 2000 nM,–,–,2 to 10 µM,EC50 (229E Mpro; read-out: 229E Mpro EC50): < 2000 nM
"CO[C@@H]1C[C@H](C(=O)N(c2ccc(S(F)(F)(F)(F)F)cc2)C(C(=O)N2CCCC3(COC3)C2)c2cccnc2)N(C#N)C1 (single isomer, unassigned) [Compound 1175]",2000 to 10000 nM,< 2000 nM,–,< 2 µM,–
"CO[C@@H]1C[C@H](C(=O)N(c2ccc(C(C)(C)C)cc2)C(C)(C(=O)NC2CCCCC2)c2cccnc2)N(C#N)C1 (single isomer, unassigned) [1230 Isomer 1]",> 30000 nM,2000 to 10000 nM,–,> 30 µM,–
"CC(C)(C)c1ccc(N(C(=O)[C@H]2CCCN2C#N)C(C(=O)N2CCNC(=O)C2)c2cccnc2)cc1 (single isomer, unassigned) [Compound 961 Isomer 2]",> 30000 nM,2000 to 10000 nM,–,–,"IC50 (HCov OC43; read-out: OC43 IC50 (uM) MEDIAN, median, listed as 961 Isomer 2): 10 to 30 µM"
"CO[C@@H]1C[C@H](C(=O)N(c2ccc(S(F)(F)(F)(F)F)cc2)C(C(=O)N2CCN(C(=O)OC(C)(C)C)C2)c2cccnc2)N(C#N)C1 (single isomer, unassigned) [1148d Isomer 1]",2000 to 10000 nM,< 2000 nM,< 2 µM,–,–
"CO[C@@H]1C[C@H](C(=O)N(c2ccc(S(F)(F)(F)(F)F)cc2)C(C(=O)NC2CCC(F)(F)CC2)c2cncs2)N(C#N)C1 (stereo partly drawn) [Compound 1311, (2R,4R)-1-cyano-N-[2-[(4,4-difluorocyclohexyl)amino]-2-oxo-1-thiazol-5-yl-ethyl]-4-methoxy-N-[4-(pentafluoro-λ^6-sulfanyl)phenyl]pyrrolidine-2-carboxamide]",< 2000 nM,< 2000 nM,< 2 µM,–,–
"CC(C)(C)c1ccc(N(C(=O)[C@H]2CCCN2C#N)C(C(=O)NCC2COC2)c2cccnc2)cc1 (single isomer, unassigned) [Compound 419 Isomer 2]",2000 to 10000 nM,–,–,2 to 10 µM,EC50 (229E Mpro; read-out: 229E Mpro EC50): < 2000 nM
"CC(C)(C)c1ccc(N(C(=O)[C@H]2CCCN2C#N)C(C(=O)N2CCOCC2)c2cccnc2)cc1 (single isomer, unassigned) [Compound 959 Isomer 2]",2000 to 10000 nM,< 2000 nM,–,–,"IC50 (HCov OC43; read-out: OC43 IC50 (uM) MEDIAN, median, listed as 959 Isomer 2): 2 to 10 µM"
"CO[C@@H]1C[C@H](C(=O)N(c2ccc(C3CC3)cc2F)C(C(=O)NC2CCC(F)(F)CC2)c2cnccc2C(F)(F)F)N(C#N)C1 (single isomer, unassigned) [Compound 1309 Isomer 2]",2000 to 10000 nM,–,–,2 to 10 µM,EC50 (229E Mpro; read-out: 229E Mpro EC50): < 2000 nM
"CN(C)C1CN(C(=O)C(c2cccnc2)N(C(=O)[C@H]2CCCN2C#N)c2ccc(C(C)(C)C)cc2)C1 (stereo partly drawn) [Compound 975, (2R)—N-(4-(tert-butyl)phenyl)-1-cyano-N-(2-(3-(dimethylamino)azetidin-1-yl)-2-oxo-1-(pyridin-3-yl)ethyl)pyrrolidine-2-carboxamide]",10000 to 30000 nM,2000 to 10000 nM,10 to 30 µM,–,–

# Source: patent US20220380347A1, “INHIBITORS OF CYSTEINE PROTEASES AND METHODS OF USE THEREOF” (Pardes Biosciences, Inc., priority 2020, published 2022)
